Measured values reported in paper PMC8429728, “TNK1 is a ubiquitin-binding and 14-3-3-regulated kinase that can be targeted to block tumor growth” (Nature Communications, 2021).
Where two headings read alike, the source gives them in different places.

What was measured:
Test in all cases: biochemical
Design in all cases: Reaction Biology 371-kinase panel at Km ATP, per cent enzyme activity relative to DMSO, single dose in duplicate
[1] = target: VRK2 (Homo sapiens, UniProt Q86Y07); settings: duplicate measurements, Km ATP
Summary of the method: (§1)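 First, kinases from a 371-member panel were exposed in vitro to 300 nM inhibitor. Next, % enzyme activity versus DMSO was computed. Finally, IC50s were derived by sigmoidal dose-response fitting with variable slope and a zero bottom constraint.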

[2] = target: c-MET (Homo sapiens, UniProt P08581); settings: duplicate measurements, Km ATP
Summary of the method: as §1

[3] = target: MARK4 (Homo sapiens, UniProt Q96L34); settings: duplicate measurements, Km ATP
Summary of the method: as §1

[4] = target: TSSK2 (Homo sapiens, UniProt Q96PF2); settings: duplicate measurements, Km ATP
Summary of the method: as §1

[5] = target: MLK2/MAP3K10 (Homo sapiens, UniProt Q02779); settings: duplicate measurements, Km ATP
Summary of the method: as §1

[6] = target: SRPK2 (Homo sapiens, UniProt P78362); settings: duplicate measurements, Km ATP
Summary of the method: as §1

[7] = target: CDK18/cyclin Y (PCTK3) (Homo sapiens, UniProt Q07002); settings: duplicate measurements, Km ATP
Summary of the method: as §1

[8] = target: NEK9 (Homo sapiens, UniProt Q8TD19); settings: duplicate measurements, Km ATP
Summary of the method: as §1

[9] = target: SBK1 (Homo sapiens, UniProt Q52WX2); settings: duplicate measurements, Km ATP
Summary of the method: as §1

[10] = target: CDK9/cyclin T2 (Homo sapiens, UniProt P50750); settings: duplicate measurements, Km ATP
Summary of the method: as §1

[11] = target: SIK2 (Homo sapiens, UniProt Q9H0K1); settings: duplicate measurements, Km ATP
Summary of the method: as §1

[12] = target: T1, CK1g2 (Homo sapiens, UniProt P78368); settings: duplicate measurements, Km ATP
T1 construct: gene CSNK1G2
Summary of the method: as §1

[13] = target: ZIPK/DAPK3 (Homo sapiens, UniProt O43293); settings: duplicate measurements, Km ATP
Summary of the method: as §1

[14] = target: T2, DMPK2 (Homo sapiens, UniProt Q6DT37); settings: duplicate measurements, Km ATP; read-out: % Enzyme Activity (relative to DMSO controls) / TP-0005801 (0.3µM) / Data 1
T2 construct: gene CDC42BPG
Summary of the method: as §1

[15] = target: PLK3 (Homo sapiens, UniProt Q9H4B4); settings: duplicate measurements, Km ATP
Summary of the method: as §1

[16] = target: TAOK3/JIK (Homo sapiens, UniProt Q9H2K8); settings: duplicate measurements, Km ATP
Summary of the method: as §1

[17] = target: FGFR4 (Homo sapiens, UniProt P22455); settings: duplicate measurements, Km ATP
Summary of the method: as §1

[18] = target: STK33 (Homo sapiens, UniProt Q9BYT3); settings: duplicate measurements, Km ATP
Summary of the method: as §1

[19] = target: PAK2 (Homo sapiens, UniProt Q13177); settings: duplicate measurements, Km ATP; read-out: % Enzyme Activity (relative to DMSO controls) / TP-0005801 (0.3µM) / Data 1
Summary of the method: as §1

[20] = target: HIPK3 (Homo sapiens, UniProt Q9H422); settings: duplicate measurements, Km ATP
Summary of the method: as §1

[21] = read-out: % Enzyme Activity (relative to DMSO controls) / TP-0005801 (0.3µM) / Data 1
[22] = read-out: % Enzyme Activity (relative to DMSO controls) / TP-0005801 (0.3µM) / Data 2

c-MET, sequence (P08581 whole entry): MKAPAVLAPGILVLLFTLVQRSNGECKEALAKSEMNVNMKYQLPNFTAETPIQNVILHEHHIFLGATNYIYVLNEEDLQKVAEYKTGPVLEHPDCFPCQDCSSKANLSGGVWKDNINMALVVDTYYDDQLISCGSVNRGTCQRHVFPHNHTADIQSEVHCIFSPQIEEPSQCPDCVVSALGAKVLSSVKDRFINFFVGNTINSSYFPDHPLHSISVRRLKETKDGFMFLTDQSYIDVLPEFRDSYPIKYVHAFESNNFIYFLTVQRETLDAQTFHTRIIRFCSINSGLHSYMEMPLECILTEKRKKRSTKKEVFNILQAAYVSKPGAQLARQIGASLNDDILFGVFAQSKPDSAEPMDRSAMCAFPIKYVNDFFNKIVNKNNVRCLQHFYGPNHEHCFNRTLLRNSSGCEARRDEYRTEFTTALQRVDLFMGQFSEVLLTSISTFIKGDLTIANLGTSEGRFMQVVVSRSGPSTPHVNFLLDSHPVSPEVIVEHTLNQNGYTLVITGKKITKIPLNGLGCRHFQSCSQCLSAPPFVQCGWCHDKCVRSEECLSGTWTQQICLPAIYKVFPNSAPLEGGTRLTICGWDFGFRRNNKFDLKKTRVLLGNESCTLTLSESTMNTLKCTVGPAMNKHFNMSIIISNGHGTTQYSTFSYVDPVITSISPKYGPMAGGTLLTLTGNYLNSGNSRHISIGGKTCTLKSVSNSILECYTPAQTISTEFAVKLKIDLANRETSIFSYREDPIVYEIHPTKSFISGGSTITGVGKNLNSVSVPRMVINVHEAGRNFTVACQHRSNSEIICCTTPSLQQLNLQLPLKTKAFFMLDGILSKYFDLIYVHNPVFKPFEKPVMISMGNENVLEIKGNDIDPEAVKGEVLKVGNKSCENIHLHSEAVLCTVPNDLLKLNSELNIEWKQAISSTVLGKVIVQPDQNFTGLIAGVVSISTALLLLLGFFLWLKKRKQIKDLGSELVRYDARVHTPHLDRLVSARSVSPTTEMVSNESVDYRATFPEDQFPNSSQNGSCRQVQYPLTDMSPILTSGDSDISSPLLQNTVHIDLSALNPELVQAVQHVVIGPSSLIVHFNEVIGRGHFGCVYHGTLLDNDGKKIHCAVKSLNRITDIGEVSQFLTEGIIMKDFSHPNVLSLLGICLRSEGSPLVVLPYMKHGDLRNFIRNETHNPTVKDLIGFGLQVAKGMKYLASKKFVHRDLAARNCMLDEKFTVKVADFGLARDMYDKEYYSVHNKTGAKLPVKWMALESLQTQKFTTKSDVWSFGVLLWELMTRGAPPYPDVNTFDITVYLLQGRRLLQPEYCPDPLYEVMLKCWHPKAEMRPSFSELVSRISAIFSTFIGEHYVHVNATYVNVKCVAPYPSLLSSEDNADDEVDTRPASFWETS
NEK9, sequence (Q8TD19 whole entry): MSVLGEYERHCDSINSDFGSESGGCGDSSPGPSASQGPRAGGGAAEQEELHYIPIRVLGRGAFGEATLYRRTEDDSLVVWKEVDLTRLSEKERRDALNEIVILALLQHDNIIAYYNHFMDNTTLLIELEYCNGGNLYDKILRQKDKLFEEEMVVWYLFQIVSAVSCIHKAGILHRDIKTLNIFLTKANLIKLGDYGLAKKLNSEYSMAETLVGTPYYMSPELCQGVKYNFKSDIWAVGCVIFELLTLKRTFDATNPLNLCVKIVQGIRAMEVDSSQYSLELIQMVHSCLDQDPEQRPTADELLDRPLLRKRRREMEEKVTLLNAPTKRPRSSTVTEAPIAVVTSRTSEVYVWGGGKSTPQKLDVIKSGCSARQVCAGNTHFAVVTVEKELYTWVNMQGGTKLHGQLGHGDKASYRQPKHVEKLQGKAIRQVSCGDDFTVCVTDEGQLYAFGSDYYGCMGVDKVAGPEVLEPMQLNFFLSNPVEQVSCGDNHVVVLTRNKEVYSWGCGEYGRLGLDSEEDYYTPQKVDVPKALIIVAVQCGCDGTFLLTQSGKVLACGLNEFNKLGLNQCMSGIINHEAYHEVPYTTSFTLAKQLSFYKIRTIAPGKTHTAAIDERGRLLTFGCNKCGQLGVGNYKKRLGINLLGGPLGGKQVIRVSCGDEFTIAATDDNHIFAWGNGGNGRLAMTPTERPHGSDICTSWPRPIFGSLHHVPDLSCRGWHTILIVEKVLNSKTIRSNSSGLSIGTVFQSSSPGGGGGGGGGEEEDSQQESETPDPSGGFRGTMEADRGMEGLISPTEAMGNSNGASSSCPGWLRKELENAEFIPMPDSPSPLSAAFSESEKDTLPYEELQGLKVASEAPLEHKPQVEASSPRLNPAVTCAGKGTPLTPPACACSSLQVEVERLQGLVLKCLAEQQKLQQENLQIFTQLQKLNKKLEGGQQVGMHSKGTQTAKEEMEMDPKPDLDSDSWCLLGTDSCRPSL
TAOK3/JIK, sequence (Q9H2K8 whole entry): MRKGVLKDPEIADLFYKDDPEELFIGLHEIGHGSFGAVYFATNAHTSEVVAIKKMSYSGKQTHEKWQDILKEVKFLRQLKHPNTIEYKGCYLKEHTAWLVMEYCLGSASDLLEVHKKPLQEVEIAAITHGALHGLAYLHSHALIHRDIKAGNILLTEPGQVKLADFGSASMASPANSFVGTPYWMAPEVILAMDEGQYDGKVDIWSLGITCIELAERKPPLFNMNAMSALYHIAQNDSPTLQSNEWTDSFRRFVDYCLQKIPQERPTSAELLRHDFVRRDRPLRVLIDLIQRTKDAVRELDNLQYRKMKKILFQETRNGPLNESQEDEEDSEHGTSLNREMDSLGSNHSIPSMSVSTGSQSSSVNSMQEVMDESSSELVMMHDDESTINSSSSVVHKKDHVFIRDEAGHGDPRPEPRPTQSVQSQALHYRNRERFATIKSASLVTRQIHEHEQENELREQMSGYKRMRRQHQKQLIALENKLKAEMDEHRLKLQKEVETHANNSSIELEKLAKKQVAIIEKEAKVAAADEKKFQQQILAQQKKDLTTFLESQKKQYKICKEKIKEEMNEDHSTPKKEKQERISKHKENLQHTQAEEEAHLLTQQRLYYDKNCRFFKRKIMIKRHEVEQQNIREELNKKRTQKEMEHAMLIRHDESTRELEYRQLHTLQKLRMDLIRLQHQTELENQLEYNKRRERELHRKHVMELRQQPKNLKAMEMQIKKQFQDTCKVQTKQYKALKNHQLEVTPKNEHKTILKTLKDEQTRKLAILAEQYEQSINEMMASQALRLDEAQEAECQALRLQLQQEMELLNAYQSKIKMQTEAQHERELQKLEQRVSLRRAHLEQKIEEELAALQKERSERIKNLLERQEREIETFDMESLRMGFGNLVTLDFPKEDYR
MLK2/MAP3K10, sequence (Q02779 whole entry): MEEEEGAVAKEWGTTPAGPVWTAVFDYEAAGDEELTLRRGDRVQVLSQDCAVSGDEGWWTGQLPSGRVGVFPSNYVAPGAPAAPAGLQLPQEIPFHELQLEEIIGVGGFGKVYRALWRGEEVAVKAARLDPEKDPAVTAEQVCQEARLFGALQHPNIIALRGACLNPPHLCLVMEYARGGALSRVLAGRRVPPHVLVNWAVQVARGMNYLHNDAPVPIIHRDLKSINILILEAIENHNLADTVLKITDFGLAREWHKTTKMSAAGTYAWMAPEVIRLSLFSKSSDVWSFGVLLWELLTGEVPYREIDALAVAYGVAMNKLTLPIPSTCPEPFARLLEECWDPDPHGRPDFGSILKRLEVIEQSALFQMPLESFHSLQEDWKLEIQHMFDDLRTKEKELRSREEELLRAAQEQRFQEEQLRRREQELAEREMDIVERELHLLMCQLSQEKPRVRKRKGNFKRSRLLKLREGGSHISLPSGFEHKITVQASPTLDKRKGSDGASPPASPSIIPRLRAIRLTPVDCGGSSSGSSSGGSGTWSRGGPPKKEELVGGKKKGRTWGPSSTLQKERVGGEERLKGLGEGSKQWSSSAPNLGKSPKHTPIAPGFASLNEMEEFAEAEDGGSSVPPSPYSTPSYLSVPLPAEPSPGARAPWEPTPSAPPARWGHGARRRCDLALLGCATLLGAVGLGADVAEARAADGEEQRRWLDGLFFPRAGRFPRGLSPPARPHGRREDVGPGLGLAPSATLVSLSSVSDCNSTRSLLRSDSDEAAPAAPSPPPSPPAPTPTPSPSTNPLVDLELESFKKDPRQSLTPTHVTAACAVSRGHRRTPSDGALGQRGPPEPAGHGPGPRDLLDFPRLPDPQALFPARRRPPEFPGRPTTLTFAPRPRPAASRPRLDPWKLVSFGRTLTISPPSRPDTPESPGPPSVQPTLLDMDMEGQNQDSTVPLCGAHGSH
PLK3, sequence (Q9H4B4 whole entry): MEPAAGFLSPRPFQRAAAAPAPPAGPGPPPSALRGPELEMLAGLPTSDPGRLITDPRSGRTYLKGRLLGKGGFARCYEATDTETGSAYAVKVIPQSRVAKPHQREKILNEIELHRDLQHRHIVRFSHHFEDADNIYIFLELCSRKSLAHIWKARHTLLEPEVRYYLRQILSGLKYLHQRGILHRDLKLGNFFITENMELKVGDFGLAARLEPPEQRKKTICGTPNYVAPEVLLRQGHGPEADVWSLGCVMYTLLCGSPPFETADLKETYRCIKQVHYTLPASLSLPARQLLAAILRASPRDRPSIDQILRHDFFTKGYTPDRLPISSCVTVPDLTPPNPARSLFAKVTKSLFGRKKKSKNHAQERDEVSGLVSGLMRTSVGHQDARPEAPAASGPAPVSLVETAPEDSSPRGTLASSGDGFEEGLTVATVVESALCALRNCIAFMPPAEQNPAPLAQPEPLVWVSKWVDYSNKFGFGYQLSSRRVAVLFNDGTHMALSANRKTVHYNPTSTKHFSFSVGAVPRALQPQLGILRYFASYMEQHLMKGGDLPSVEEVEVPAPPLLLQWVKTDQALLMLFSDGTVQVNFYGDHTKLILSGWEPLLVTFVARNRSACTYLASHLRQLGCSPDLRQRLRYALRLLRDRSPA

remaining activity at 0.3 µM [1, 21]: 96%
remaining activity at 0.3 µM [1, 22]: 93.9%
remaining activity at 0.3 µM [2, 21]: 104%
remaining activity at 0.3 µM [2, 22]: 102%
remaining activity at 0.3 µM [3, 21]: 89.8%
remaining activity at 0.3 µM [3, 22]: 88.4%
remaining activity at 0.3 µM [4, 21]: 88.4%
remaining activity at 0.3 µM [4, 22]: 86.9%
remaining activity at 0.3 µM [5, 21]: 87%
remaining activity at 0.3 µM [5, 22]: 85.9%
remaining activity at 0.3 µM [6, 21]: 114%
remaining activity at 0.3 µM [6, 22]: 110%
remaining activity at 0.3 µM [7, 21]: 98%
remaining activity at 0.3 µM [7, 22]: 94.2%
remaining activity at 0.3 µM [9, 21]: 99%
remaining activity at 0.3 µM [9, 22]: 95.5%
remaining activity at 0.3 µM [10, 21]: 89.2%
remaining activity at 0.3 µM [10, 22]: 88.6%
remaining activity at 0.3 µM [11, 21]: 79.4%
remaining activity at 0.3 µM [11, 22]: 78.3%
remaining activity at 0.3 µM [12, 21]: 94.5%
remaining activity at 0.3 µM [12, 22]: 92.9%
remaining activity at 0.3 µM [13, 21]: 81%
remaining activity at 0.3 µM [13, 22]: 79.4%
remaining activity at 0.3 µM [14]: 109%
remaining activity at 0.3 µM [15, 21]: 109%
remaining activity at 0.3 µM [15, 22]: 102%
remaining activity at 0.3 µM [16, 21]: 88.2%
remaining activity at 0.3 µM [16, 22]: 86.8%
remaining activity at 0.3 µM [17, 21]: 79.9%
remaining activity at 0.3 µM [17, 22]: 77.6%
remaining activity at 0.3 µM [18, 21]: 32.4%
remaining activity at 0.3 µM [18, 22]: 31.5%
remaining activity at 0.3 µM [19]: 104%
remaining activity at 0.3 µM [20, 21]: 91.9%
remaining activity at 0.3 µM [20, 22]: 85.6%
Structure (SMILES): COc1cc(N2CCN(C)CC2)c(C)cc1Nc1ncc(Br)c(Nc2cccnc2N(C)C)n1 [TP-5801]
remaining activity at 0.3 µM [8, 21]: 69.6%
remaining activity at 0.3 µM [8, 22]: 68.6%
